Assay results published in ChEMBL document CHEMBL6134887, “Linker and Head-Group Exploration of Anti-MRSA Triaromatic Pleuromutilins” (J Med Chem, 2025).
≈ marks a conversion by molar mass, not a printed value. Calls of active or inactive are those of the source. No cut-off for these calls is given here.

Experiments:
Staphylococcus aureus [1] = test: Antibacterial activity against methicillin resistant Staphylococcus aureus USA300 FPR3757 assessed as inhibition of bacterial growth incubated for 20 to 24 hrs by microbroth serial dilution method; type: functional; conditions: time 20-24 hrs, read-out: MIC100
Enterococcus faecium [2] = test: Antibacterial activity against vancomycin, ampicillin and ciprofloxacin resistant Enterococcus faecium clinical isolate 1 assessed as inhibition of bacterial growth incubated for 20 to 24 hrs by microbroth serial dilution method; type: functional; conditions: time 20-24 hrs, read-out: MIC100
Enterococcus faecium [3] = test: Antibacterial activity against vancomycin, ampicillin and ciprofloxacin resistant Enterococcus faecium clinical isolate 5 assessed as inhibition of bacterial growth incubated for 20 to 24 hrs by microbroth serial dilution method; type: functional; conditions: time 20-24 hrs, read-out: MIC100
Staphylococcus aureus [4] = test: Antibacterial activity against methicillin susceptible Staphylococcus aureus ATCC 25923 assessed as inhibition of bacterial growth incubated for 20 to 24 hrs by microbroth serial dilution method; type: functional; conditions: time 20-24 hrs, read-out: MIC100
Staphylococcus aureus [5] = test: Antibacterial activity against methicillin susceptible Staphylococcus aureus ATCC 29213 assessed as inhibition of bacterial growth incubated for 20 to 24 hrs by microbroth serial dilution method; type: functional; conditions: time 20-24 hrs, read-out: MIC100
Staphylococcus aureus [6] = test: Antibacterial activity against methicillin resistant Staphylococcus aureus clinical isolate 55508 assessed as inhibition of bacterial growth incubated for 20 to 24 hrs by microbroth serial dilution method; type: functional; conditions: time 20-24 hrs, read-out: MIC100
Staphylococcus aureus [7] = test: Antibacterial activity against methicillin resistant Staphylococcus aureus clinical isolate 52518 assessed as inhibition of bacterial growth incubated for 20 to 24 hrs by microbroth serial dilution method; type: functional; conditions: time 20-24 hrs, read-out: MIC100
Staphylococcus aureus [8] = test: Antibacterial activity against mupirocin resistant Staphylococcus aureus 4828 assessed as inhibition of bacterial growth incubated for 20 to 24 hrs by microbroth serial dilution method; type: functional; conditions: time 20-24 hrs, read-out: MIC100
Staphylococcus aureus [9] = test: Antibacterial activity against methicillin resistant Staphylococcus aureus clinical isolate 933010 assessed as inhibition of bacterial growth incubated for 20 to 24 hrs by microbroth serial dilution method; type: functional; conditions: time 20-24 hrs, read-out: MIC100
[10] = Metabolic stability in mouse liver microsomes assessed as half-life at 1 uM measured up to 60 mins by LC-MS/MS analysis; type: ADME, Microsome
[11] = Metabolic stability in mouse liver assessed as intrinsic clearance at 1 uM measured up to 60 mins by LC-MS/MS analysis; type: ADME, tissue-based; conditions: read-out: CLH
[12] = Metabolic stability in human liver microsomes assessed as half-life at 1 uM measured up to 30 mins by LC-MS/MS analysis; type: ADME, Microsome
[13] = Metabolic stability in human liver assessed as intrinsic clearance at 1 uM measured up to 30 mins by LC-MS/MS analysis; type: ADME, tissue-based; conditions: read-out: CLH
Caco-2 = test: Cytotoxicity against human Caco-2 cells assessed as reduction in cell viability at 1 to 10 uM measured after 1 to 8 days by Celltiter-Glo reagent based assay; type: toxicity; conditions: caco-2, 10 µM, dose lower 1 µM, time lower 1 day, dose upper 10 µM, time upper 8 day
DU-145 = test: Cytotoxicity against human DU-145 cells assessed as reduction in cell viability at 1 to 10 uM measured after 3 hrs by Celltiter-Glo reagent based assay; type: toxicity; conditions: du-145, 3 h, dose 1-10 µM
MDCK-MDR1 = test: Cytotoxicity against MDCKII-MDR1 cells assessed as reduction in cell viability at 1 to 10 uM measured after 3 hrs by Celltiter-Glo reagent based assay; type: toxicity, Canis lupus familiaris; conditions: dog, mdck-mdr1, 3 h, dose 1-10 µM
Staphylococcus aureus [14] = test: Antibacterial activity against Staphylococcus aureus ATCC 29213 infected in skin infection female BALB/cJRj mouse model assessed as reduction in bacterial load in wound at 2 % administered twice daily at 6 hrs interval as cream formulation and measured on day 1; type: functional; conditions: route top, time 1 day
Staphylococcus aureus [15] = test: Antibacterial activity against Staphylococcus aureus ATCC 29213 infected in skin infection female BALB/cJRj mouse model assessed as reduction in bacterial load in wound at 2 % administered twice daily at 6 hrs interval as cream formulation and measured on day 4 (reference value: 5.3 x 10^3 CFU/ml); type: functional; conditions: route top, time 4 day
Staphylococcus aureus [16] = test: Antibacterial activity against Staphylococcus aureus ATCC 29213 infected in skin infection female BALB/cJRj mouse model assessed as reduction in bacterial load in wound at 2 % administered twice daily at 6 hrs interval as cream formulation and measured on day 5; type: functional; conditions: route top
[17] = Toxicity in female BALB/cJRj mouse model of skin infection infected with Staphylococcus aureus ATCC 29213 assessed as skin toxicity at 2 % administered twice daily at 6 hrs interval as cream formulation and measured on day 4; conditions: in vivo, topical_or_ocular, 96 h, route top, time 4 day
[18] = Toxicity in female BALB/cJRj mouse model of skin infection infected with Staphylococcus aureus ATCC 29213 assessed as skin irritation at 2 % administered twice daily at 6 hrs interval as cream formulation and measured on day 4; conditions: in vivo, topical_or_ocular, 96 h, route top, time 4 day

## C=C[C@]1(C)C[C@@H](OC(=O)Cn2cc(-c3ccc(Cn4ccc5c(N)ncnc54)nc3)nn2)[C@]2(C)[C@H](C)CC[C@]3(CCC(=O)[C@H]32)[C@@H](C)[C@@H]1O
Staphylococcus aureus [1]
  MIC: 0.015 µg/mL (≈ 0.023 µM)
Enterococcus faecium [2]
  MIC: 0.015 µg/mL (≈ 0.023 µM)
Enterococcus faecium [3]
  MIC: 0.03 µg/mL (≈ 0.046 µM)
Staphylococcus aureus [4]
  MIC: 0.06 µg/mL (≈ 0.0919 µM)
Staphylococcus aureus [5]
  MIC: 0.015 µg/mL (≈ 0.023 µM)
Staphylococcus aureus [6]
  MIC: < 0.015 µg/mL
Staphylococcus aureus [7]
  MIC: < 0.015 µg/mL
Staphylococcus aureus [8]
  MIC: < 0.015 µg/mL
Staphylococcus aureus [9]
  MIC: 0.03 µg/mL (≈ 0.046 µM)
[10]
  half-life at 1 µM: 0.58 min
[11]
  CLint scaled at 1 µM: 566 L/h/kg
[12]
  half-life at 1 µM: 1.9 min
[13]
  CLint scaled at 1 µM: 199 L/h/kg
Caco-2
  Activity: Non-toxic
DU-145
  Activity: Non-toxic
MDCK-MDR1
  Activity: Non-toxic
Staphylococcus aureus [14]
  Activity: 5.4 10^5CFU/ml
Staphylococcus aureus [15]
  Activity: 2.5 log10CFU/ml
Staphylococcus aureus [16]; time 5 day
  Activity: 1.5 10^7CFU/ml
[17]
  Activity: Non-toxic
[18]
  Activity: Non-toxic

## CC(=O)O[C@H]1C[C@@]2(C)[C@@H](C[C@@H](O)[C@H]3[C@@]4(C)CC[C@@H](O)[C@@H](C)[C@@H]4CC[C@@]32C)/C1=C(\CCC=C(C)C)C(=O)O [FUSIDIC ACID]
Staphylococcus aureus [1]
  MIC: 0.25 µg/mL (≈ 0.484 µM)
Staphylococcus aureus [4]
  MIC: 0.12 µg/mL (≈ 0.232 µM)
Staphylococcus aureus [5]
  MIC: 0.015 µg/mL (≈ 0.029 µM)
Staphylococcus aureus [14]
  Activity: 4.8 10^4CFU/ml
Staphylococcus aureus [15]
  Activity: 2.5 log10CFU/ml
Staphylococcus aureus [16]; time 5.0 day
  Activity: Active
